Experimental data from US20240116985A1, “STAPLED PEPTIDES AND METHODS THEREOF” (priority 2020, published 2024).
Values after ≈ are worked out from the molar mass of the structure shown. Where two headings read alike, the source gives them in different places.

Legend:
[1] = biological target: T1, full-length beta-Catenin (Uniprot ID P35222) (Homo sapiens, UniProt P35222); assay: Fluorescence polarization IC50 (beta-catenin / 5FAM-TCF4 10-53 competition); format: binding; conditions: read-out: beta-Catenin FP IC50
T1 construct: 10 nM full-length beta-Catenin (Uniprot ID P35222)
T1 sequence (P35222 1-781): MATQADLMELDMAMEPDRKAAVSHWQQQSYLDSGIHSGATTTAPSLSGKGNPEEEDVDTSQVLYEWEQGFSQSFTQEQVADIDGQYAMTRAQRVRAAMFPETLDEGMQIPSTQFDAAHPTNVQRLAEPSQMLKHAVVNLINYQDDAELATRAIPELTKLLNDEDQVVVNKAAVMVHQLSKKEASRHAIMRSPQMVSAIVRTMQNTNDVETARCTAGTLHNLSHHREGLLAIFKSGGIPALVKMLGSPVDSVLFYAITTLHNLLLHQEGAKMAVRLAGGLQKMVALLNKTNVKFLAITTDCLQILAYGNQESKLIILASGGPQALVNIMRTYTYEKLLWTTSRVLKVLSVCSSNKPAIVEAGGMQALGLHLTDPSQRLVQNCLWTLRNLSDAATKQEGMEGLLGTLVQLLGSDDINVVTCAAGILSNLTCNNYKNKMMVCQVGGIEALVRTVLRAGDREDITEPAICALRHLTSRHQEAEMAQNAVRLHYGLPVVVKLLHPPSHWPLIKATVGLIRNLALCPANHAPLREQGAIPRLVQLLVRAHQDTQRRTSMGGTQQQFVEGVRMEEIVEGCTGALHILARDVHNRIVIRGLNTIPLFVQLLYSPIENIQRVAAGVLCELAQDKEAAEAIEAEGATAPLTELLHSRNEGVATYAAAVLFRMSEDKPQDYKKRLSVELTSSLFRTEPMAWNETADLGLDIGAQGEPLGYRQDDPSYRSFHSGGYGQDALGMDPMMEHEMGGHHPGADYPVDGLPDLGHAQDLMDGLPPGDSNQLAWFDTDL

CHI Log D procedure = format: physicochemical; conditions: pH 7.4, CHI Log D
Solubility in PBS = format: physicochemical
How it was run: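 The PBS solution was ultracentrifuged and the supernatant analyzed by HPLC. Its peak area was divided by that of a 50 μM peptide DMSO reference injection and multiplied by 50 uM to give solubility.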

[2] = biological target: T2, beta-catenin/TCF4 engagement (Homo sapiens, UniProt P35222); assay: Nano-BRET target engagement assay (B-cat-Halo & TCF4-Luc in HEK293 cells); format: cell-based; conditions: for inhibition at 10 µM: HEK293, 10 uM, read-out: NanoBRET % inh @ 10 uM
T2 construct: expressed in transfected cells; host or cells: HEK293
T2 sequence (P35222 1-781): T1 sequence (P35222 1-781)

Row | Compound | IC50 [1] [nM] | chromatographic logD (CHI Log D procedure) | Solubility (Solubility in PBS; Solubility (uM)) [µM] | IC50 ([2]; read-out: NanoBRET Abs IC50) [nM] | Solubility (Solubility in PBS) [µM] | inhibition at 10 µM [2] [%] | IC50 ([2]; read-out: NanoBRET IC50) [nM]
1 | CC(=O)N1CCC[C@]12CC=CCCCC1(CCCC=CCCCOC(=O)N3CC[C@@](C(=O)N[C@@H](Cc4ccsc4)C(=O)N[C@@H](Cc4csc5ccccc45)C(=O)N[C@@H](Cc4c[nH]cn4)C(N)=O)(C3)NC(=O)[C@H](CCCNC(N)=O)NC(=O)[C@H](Cc3ccccc3)NC(=O)[C@H](C)NC(=O)[C@H](C)NC(=O)[C@H](CC(=O)O)NC(=O)[C@H](CC(=O)O)NC1=O)NC(=O)[C@H](CC(C)(C)C)NC(=O)[C@H](CC(=O)O)NC2=O (stereo partly drawn) [I-806, Ac-PL3-Asp-Npg-B5-Asp-Asp-Ala-Ala-Phe-Cit-PyrS2-3Thi-BztA-His-NH2] | 5 | 2.04 | 37 (≈ 72.9 µg/mL) | 21600 |  |  | 
2 | CC(=O)N1CCC[C@]12CC=CCCCC1(CCCC=CCCCOC(=O)N3CC[C@@](C(=O)N[C@@H](Cc4ccsc4)C(=O)N[C@@H](Cc4csc5ccccc45)C(=O)N[C@@H](Cc4c[nH]cn4)C(N)=O)(C3)NC(=O)[C@H](Cc3ccccc3)NC(=O)[C@H](Cc3ccccc3)NC(=O)[C@H](C)NC(=O)[C@H](C)NC(=O)[C@H](CC(=O)O)NC(=O)[C@H](CC(=O)O)NC1=O)NC(=O)[C@H](CC(C)(C)C)NC(=O)[C@H](CC(=O)O)NC2=O (stereo partly drawn) [I-808, Ac-PL3-Asp-Npg-B5-Asp-Asp-Ala-Ala-Phe-Phe-PyrS2-3Thi-BztA-His-NH2] | 5 | 2.34 |  | 4400 | 10 (≈ 19.6 µg/mL) |  | 
3 | CC(=O)N1CCC[C@]12CC=CCCCC1(CCCC=CCCCOC(=O)N3CC[C@@](C(=O)N[C@@H](Cc4ccsc4)C(=O)N[C@@H](Cc4csc5ccccc45)C(=O)N[C@@H](Cc4c[nH]cn4)C(N)=O)(C3)NC(=O)[C@H]([C@@H](C)O)NC(=O)[C@H](Cc3ccccc3)NC(=O)[C@H](C)NC(=O)[C@H](C)NC(=O)[C@H](CC(=O)O)NC(=O)[C@H](CC(=O)O)NC1=O)NC(=O)[C@H](CC(C)(C)C)NC(=O)[C@H](CC(=O)O)NC2=O (stereo partly drawn) [I-810, Ac-PL3-Asp-Npg-B5-Asp-Asp-Ala-Ala-Phe-Thr-PyrS2-3Thi-BztA-His-NH2] | 6 | 2.17 | 39 (≈ 74.7 µg/mL) | 18000 |  |  | 
4 | CC(=O)N1CCC[C@]12CC=CCCCC1(CCCC=CCCCOC(=O)N3CC[C@@](C(=O)N[C@@H](Cc4cscn4)C(=O)N[C@@H](Cc4csc5ccccc45)C(=O)N[C@@H](CCC(N)=O)C(N)=O)(C3)NC(=O)[C@H](CC(N)=O)NC(=O)[C@H](Cc3ccccc3)NC(=O)[C@H](C)NC(=O)[C@H](C)NC(=O)[C@H](CC(=O)O)NC(=O)[C@H](CC(=O)O)NC1=O)NC(=O)[C@H](CC(C)(C)C)NC(=O)[C@H](CC(=O)O)NC2=O (stereo partly drawn) [I-811, Ac-PL3-Asp-Npg-B5-Asp-Asp-Ala-Ala-Phe-Asn-PyrS2-4Thz-BztA-Gln-NH2] | 32 | 1.68 | 43 (≈ 82.5 µg/mL) | > 20000 |  |  | 
5 | CC(=O)N1CCC[C@]12CC=CCCCC1(CCCC=CCCCOC(=O)N3CC[C@@](C(=O)N[C@@H](Cc4ccsc4)C(=O)N[C@@H](Cc4csc5ccccc45)C(=O)N[C@H](Cc4c[nH]cn4)C(N)=O)(C3)NC(=O)[C@H](CC(N)=O)NC(=O)[C@H](Cc3ccccc3)NC(=O)[C@H](C)NC(=O)[C@H](C)NC(=O)[C@H](CC(=O)O)NC(=O)[C@H](CC(=O)O)NC1=O)NC(=O)[C@H](CC(C)(C)C)NC(=O)[C@H](CC(=O)O)NC2=O (stereo partly drawn) [I-813, Ac-PL3-Asp-Npg-B5-Asp-Asp-Ala-Ala-Phe-Asn-PyrS2-3Thi-BztA-dHis-NH2] | 7 | 2.17 | 28 (≈ 54 µg/mL) | 20900 |  |  | 
6 | CC(=O)N1CCC[C@]12CC=CCCCC1(CCCC=CCCCOC(=O)N3CC[C@@](C(=O)N[C@@H](Cc4ccsc4)C(=O)N[C@@H](Cc4csc5ccccc45)C(=O)N[C@@H](CC(N)=O)C(N)=O)(C3)NC(=O)[C@H](CC(N)=O)NC(=O)[C@H](Cc3ccccc3)NC(=O)[C@H](C)NC(=O)[C@H](C)NC(=O)[C@H](CC(=O)O)NC(=O)[C@H](CC(=O)O)NC1=O)NC(=O)[C@H](CC(C)(C)C)NC(=O)[C@H](CC(=O)O)NC2=O (stereo partly drawn) [I-816, Ac-PL3-Asp-Npg-B5-Asp-Asp-Ala-Ala-Phe-Asn-PyrS2-3Thi-BztA-Asn-NH2] | 5 | 2.05 | 46 (≈ 87.6 µg/mL) | 13700 |  |  | 
7 | CC(=O)N1CCC[C@]12CC=CCCCC1(CCCC=CCCCOC(=O)N3CC[C@@](C(=O)N[C@@H](Cc4ccsc4)C(=O)N[C@@H](Cc4csc5ccccc45)C(=O)N[C@@H](C(N)=O)[C@H](C)O)(C3)NC(=O)[C@H](CC(N)=O)NC(=O)[C@H](Cc3ccccc3)NC(=O)[C@H](C)NC(=O)[C@H](C)NC(=O)[C@H](CC(=O)O)NC(=O)[C@H](CC(=O)O)NC1=O)NC(=O)[C@H](CC(C)(C)C)NC(=O)[C@H](CC(=O)O)NC2=O (stereo partly drawn) [I-817, Ac-PL3-Asp-Npg-B5-Asp-Asp-Ala-Ala-Phe-Asn-PyrS2-3Thi-BztA-dThr-NH2] | 10 | 2.23 | 47 (≈ 88.9 µg/mL) |  |  | 45 | 6800
8 | CC(=O)N1CCC[C@]12CC=CCCCC1(CCCC=CCCCOC(=O)N3CC[C@@](C(=O)N[C@@H](Cc4ccsc4)C(=O)N[C@@H](Cc4csc5ccccc45)C(=O)N[C@H](CC(N)=O)C(N)=O)(C3)NC(=O)[C@H](CC(N)=O)NC(=O)[C@H](Cc3ccccc3)NC(=O)[C@H](C)NC(=O)[C@H](C)NC(=O)[C@H](CC(=O)O)NC(=O)[C@H](CC(=O)O)NC1=O)NC(=O)[C@H](CC(C)(C)C)NC(=O)[C@H](CC(=O)O)NC2=O (stereo partly drawn) [I-818, Ac-PL3-Asp-Npg-B5-Asp-Asp-Ala-Ala-Phe-Asn-PyrS2-3Thi-BztA-dAsn-NH2] | 6 | 2.12 | 48 (≈ 91.4 µg/mL) | 15000 |  | 31.4 | 
9 | CC(=O)N1CCC[C@]12CC=CCCCC1(CCCC=CCCCOC(=O)N3CC[C@@](C(=O)N[C@@H](Cc4ccsc4)C(=O)N[C@@H](Cc4csc5ccccc45)C(=O)N[C@@H](CCC(N)=O)C(=O)N[C@@H](C)C(N)=O)(C3)NC(=O)[C@H](CC(N)=O)NC(=O)[C@H](Cc3ccccc3)NC(=O)[C@H](C)NC(=O)[C@H](C)NC(=O)[C@H](CC(=O)O)NC(=O)[C@H](CC(=O)O)NC1=O)NC(=O)[C@H](CC(C)(C)C)NC(=O)[C@H](CC(=O)O)NC2=O (stereo partly drawn) [I-819, Ac-PL3-Asp-Npg-B5-Asp-Asp-Ala-Ala-Phe-Asn-PyrS2-3Thi-BztA-Gln-Ala-NH2] | 5 | 2.03 |  | 7500 | 50 (≈ 99.5 µg/mL) | 37.8 | 
10 | CC(=O)N1CCC[C@]12CC=CCCCC1(CCCC=CCCCOC(=O)N3CC[C@@](C(=O)N[C@@H](Cc4ccsc4)C(=O)N[C@@H](Cc4csc5ccccc45)C(=O)N[C@@H](Cc4c[nH]cn4)C(=O)N[C@@H](C)C(N)=O)(C3)NC(=O)[C@H](CC(N)=O)NC(=O)[C@H](Cc3ccccc3)NC(=O)[C@H](C)NC(=O)[C@H](C)NC(=O)[C@H](CC(=O)O)NC(=O)[C@H](CC(=O)O)NC1=O)NC(=O)[C@H](CC(C)(C)C)NC(=O)[C@H](CC(=O)O)NC2=O (stereo partly drawn) [I-820, Ac-PL3-Asp-Npg-B5-Asp-Asp-Ala-Ala-Phe-Asn-PyrS2-3Thi-BztA-His-Ala-NH2] | 6 | 2.1 | 38 (≈ 75.9 µg/mL) | 18200 |  | 30.8 | 
11 | CC(=O)N1CCC[C@]12CC=CCCCC1(CCCC=CCCCOC(=O)N3CC[C@@](C(=O)N[C@@H](Cc4ccsc4)C(=O)N[C@@H](Cc4csc5ccccc45)C(=O)N[C@@H](CC(N)=O)C(=O)N[C@@H](C)C(N)=O)(C3)NC(=O)[C@H](CC(N)=O)NC(=O)[C@H](Cc3ccccc3)NC(=O)[C@H](C)NC(=O)[C@H](C)NC(=O)[C@H](CC(=O)O)NC(=O)[C@H](CC(=O)O)NC1=O)NC(=O)[C@H](CC(C)(C)C)NC(=O)[C@H](CC(=O)O)NC2=O (stereo partly drawn) [I-821, Ac-PL3-Asp-Npg-B5-Asp-Asp-Ala-Ala-Phe-Asn-PyrS2-3Thi-BztA-Asn-Ala-NH2] | 5 | 2.07 | 36 (≈ 71.1 µg/mL) | 9100 |  |  | 
12 | CC(=O)N1CCC[C@]12CC=CCCCC1(CCCC=CCCCOC(=O)N3CC[C@@](C(=O)N[C@@H](Cc4ccsc4)C(=O)N[C@@H](Cc4csc5ccccc45)C(=O)N[C@@H](Cc4c[nH]cn4)C(=O)N[C@H](C)C(N)=O)(C3)NC(=O)[C@H](CC(N)=O)NC(=O)[C@H](Cc3ccccc3)NC(=O)[C@H](C)NC(=O)[C@H](C)NC(=O)[C@H](CC(=O)O)NC(=O)[C@H](CC(=O)O)NC1=O)NC(=O)[C@H](CC(C)(C)C)NC(=O)[C@H](CC(=O)O)NC2=O (stereo partly drawn) [I-823, Ac-PL3-Asp-Npg-B5-Asp-Asp-Ala-Ala-Phe-Asn-PyrS2-3Thi-BztA-His-dAla-NH2] | 5 | 2.09 | 32 (≈ 63.9 µg/mL) | 18300 |  | 37.5 | > 10000
